These molecules were tested on MIA-PaCa pancreatic cancer cells (expressing mutated Ki-ras gene) (assay: Antiproliferative activity on human tumoral cells, WST-1 assay, MIA PaCa-2). Conditions: MIA PaCa-2 cells, 96 hrs treatment, 0 to 100 μM, WST-1, compared to control cells.
Type: cell-based
Method: Antiproliferative Activity of Farnesyl-Transferase Inhibitors on Human Tumoral Cells
The assays were performed using either A-427 lung carcinomas (expressing mutated Ki-ras gene), HT-29 colon adenocarcinomas (expressing wild type ras gene), Calu-1 lung carcinomas (expressing mutated Ki-ras gene), and MIA-PaCa pancreatic cancer cells (expressing mutated Ki-ras gene). These tumoral cells were seeded on 96 well plates at day 0 and maintained at 37° C. in 5% CO2 atmosphere. At day 1, cells were treated with increased concentrations of test compounds ranging from 0 to 100 μM for 96 hrs. At the end of this period, the quantification of cell proliferation was evaluated by the calorimetric assay based on the cleavage of the tetrazolium salt WST-1 by mitochondrial dehydrogenases in viable cells leading to the formazan formation (Cell Proliferation Reagent WST-1 Kit, Boehringer Mannheim, Germany). These experiments, done in octuplicate, were repeated twice. The results, shown in Table I, depict the concentration range (μM) of test compound required to inhibit proliferation as compared to control cells in which no test compound was added.

Structure (SMILES)	concentration range of test compound required to inhibit proliferation, MIA PaCa-2
COc1ccccc1-c1cn2c(n1)[C@H](C(C)(C)C)N(C(=O)[C@@H](N)CSSC[C@H](N)C(=O)N1CCn3cc(-c4ccccc4OC)nc3[C@@H]1C(C)(C)C)CC2 [Compound 30, bis-1,1′-[7-(2-amino-1-oxo-3-thiopropyl)-8-(1,1-dimethylethyl)-2-(2-methoxyphenyl)-5,6,7,8-tetrahydroimidazo[1,2a]pyrazine]disulfide]	12.5 to 25 µM
CCCC[C@H]1c2nc(-c3ccccc3OC)cn2CCN1C(=O)[C@@H](N)CS [Compound 3, 7-(2-amino-1-oxo-3-thio-propyl)-8-butyl-2-(2-methoxy-phenyl)-5,6,7,8-tetrahydro-imidazo-[1,2a]-pyrazine]	12.5 to 25 µM
CCC(C)[C@H]1c2nc(-c3ccccc3OC)cn2CCN1C(=O)[C@@H](N)CSSC[C@H](N)C(=O)N1CCn2cc(-c3ccccc3OC)nc2[C@@H]1C(C)CC (stereo partly shown) [Compound 20, bis-1,1′-[7-(2-amino-1-oxo-3-thiopropyl)-2-(methoxyphenyl)-8-(1-methylpropyl)-5,6,7,8-tetrahydroimidazo[1,2a]pyrazine]disulfide]	12.5 µM
COc1ccccc1-c1cn2c(n1)[C@H](C(C)(C)C)N(C(=O)[C@@H](N)CS)CC2 [Compound 24, 7-(2-amino-1-oxo-3-thiopropyl)-8-(1,1-dimethylethyl)-2-(2-methoxyphenyl)-5,6,7,8-tetrahydroimidazo[1,2a]pyrazine]	25 to 50 µM
CCC(C)[C@H]1c2nc(-c3ccccc3OCc3ccccc3)cn2CCN1C(=O)[C@@H](N)CS (stereo partly shown) [Compound 25, 7-(2-amino-1-oxo-3-thiopropyl)-8-(1-methylpropyl)-2-(2-(phenylmethoxy)phenyl)-5,6,7,8-tetrahydroimidazo[1,2a]pyrazine]	6.25 to 12.5 µM
COc1ccccc1-c1cn2c(n1)[C@H](CC1CCCCC1)N(C(=O)[C@@H](N)CS)CC2 [Compound 26, 7-(2-amino-1-oxo-3-thiopropyl)-8-(cyclohexylmethyl)-2-(2-methoxyphenyl)-5,6,7,8-tetrahydroimidazo[1,2a]pyrazine]	6.25 to 12.5 µM
CCCC[C@H]1c2nc(-c3c(O)cccc3OC)cn2CCN1C(=O)[C@@H](N)CS [Compound 29, 7-(2-amino-1-oxo-3-thiopropyl)-8-butyl-2 (2-hydroxy-6-methoxyphenyl)-5,6,7,8-tetrahydro[1,2a]pyrazine]	6.25 to 12.5 µM
